Reference: PMC10666288, “Unveiling the Catalytic Mechanism of a Processive Metalloaminopeptidase” (Biochemistry, 2023)
Several values for one entry are separate records, joined by “and”; a condition that tells them apart may be missing. Identical values can stand only once. Like-named read-outs stand apart in the source and are kept apart here.

Tests used:
Set-up in all cases: GG stays after cleavage) (N); made in house; host or cells: E. coli BL21(DE3)
PaPepA [1] = molecular target: T1, PaPepA (Pseudomonas aeruginosa, UniProt Q02RY8); format: biochemical
T1 sequence (Q02RY8 whole entry): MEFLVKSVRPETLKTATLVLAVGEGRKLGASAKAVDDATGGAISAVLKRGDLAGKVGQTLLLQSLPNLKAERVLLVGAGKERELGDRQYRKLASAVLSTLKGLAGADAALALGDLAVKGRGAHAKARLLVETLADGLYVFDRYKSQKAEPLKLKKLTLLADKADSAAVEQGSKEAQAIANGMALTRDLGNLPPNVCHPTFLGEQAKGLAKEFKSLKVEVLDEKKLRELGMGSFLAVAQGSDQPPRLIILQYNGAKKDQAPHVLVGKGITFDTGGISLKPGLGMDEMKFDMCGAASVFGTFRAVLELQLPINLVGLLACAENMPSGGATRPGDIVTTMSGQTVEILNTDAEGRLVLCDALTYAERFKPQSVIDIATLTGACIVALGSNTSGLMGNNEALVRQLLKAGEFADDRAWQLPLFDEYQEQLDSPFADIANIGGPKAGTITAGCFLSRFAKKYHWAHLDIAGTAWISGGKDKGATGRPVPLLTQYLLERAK

PaPepA [2] = molecular target: T1, PaPepA; format: biochemical; remark: listed apart in the source
From the text: Viscosity effects were studied by using sucrose as a viscogen. Relative viscosities for different concentrations of sucrose were taken from Bazelyansky et al.[27] Concentrations of viscogen were as follows: 14% sucrose, ηrel = 1.5; 24% sucrose, ηrel = 2.2; and 32% sucrose, ηrel = 2.9.
Viscosity effects were fit to the following equation, where kinetic parameter0 and kinetic parameterη are kcat or kcat/KM in the […] of viscogen, respectively, ηrel is the relative viscosity of the solution, and m is the slope. [drawing 4] 4
All measurements were performed in triplicate.

PaPepA [3] = molecular target: T1, PaPepA; assay: Pre-steady-state stopped-flow kinetics with global fit; format: biochemical
Protocol: An Applied Photophysics SX20 stopped-flow spectrofluorimeter was used to perform kinetic measurements under pre-steady-state conditions. The instrument was equipped with a xenon lamp, a 5 μL mixing cell, and a circulating water bath to maintain constant temperature. All reactions were carried out in 100 mM HEPES (pH 8.0) and 50 mM KCl at 25 °C. Enzyme and metal ions were kept in one syringe, while the other substrate (Leu-pNA or Leu-AMC) was kept in the second syringe. The reaction was triggered by rapid mixing of 55 μL from each syringe. Three traces with 10,000 points per trace were collected per experiment.
For absorbance measurements, product formation was monitored by reading the pNA absorbance at 405 nm (5 mm path length). Multiple turnover rates were measured in the presence of saturating concentrations of both metal and Leu-pNA. PaPepA was present at 1 or 10 μM, MnCl2 was present at 3 mM, and Leu-pNA was present at 250 μM. For fluorescence measurements, a path length of 1 mm was used. Reactions were followed by monitoring the appearance of a 7-amino-4-methylcoumarin (AMC) fluorophore following PaPepA-catalyzed breakdown of Leu-AMC. An excitation wavelength of 341 nm was used with a 400 nm cutoff filter for the emission. Slits were 1 nm for excitation and 2 nm for emission.
Experiments under single turnover conditions monitored fluorescence change with a detector voltage of 300 V, 0.1 μM Leu-AMC, 1.5 mM MnCl2, and varying PaPepA (0.5, 1, 2, 4, 8, 16, or 32 μM). Experiments under multiple turnover conditions monitored fluorescence change with a detector voltage of 250 V, 50 μM Leu-AMC, 1.2 μM PaPepA and varying concentrations of MnCl2 (0.2, 0.4, 0.6, 1.2, 2.4, 6, 9, 12, 18, 24, 60, 120, 1200, or 3600 μM).
Calibration curves of known concentrations of AMC were performed at detector voltages of 250 and 300 V. STO and MTO curves were divided by the slope of these calibration curves to convert the change in fluorescence observed to the concentration of AMC produced.
Pre-steady-state data were imported into KinTek Global Explorer and fit to linear or single-exponential equations using the aFit function to obtain standard deviation estimates. A kinetic model with five steps was considered, and rate constants and outputs were fitted according to this model. Initial estimates for rate constants were based on kcat and KM values. The FitSpace Editor was employed to determine confidence intervals for each of the rate constants. More details including model fitted and parameters used are available in the Supporting Information.
Supporting information note 4: Kintek Global Explorer fitting of stopped flow data Both MTO and STO pre-steady-state data were fit according to the mode described in Figure 4A with scaling factors for each fluorescent species (EP and P) to account for differences in AMC fluorescence whilst in complex with PaPepA versus free in solution. Scaling factors were different across STO and MTO experiments as both were carried out using different detector voltages.
The model that best fitted acquired data was as below, where F is metal free enzyme, E1 is PaPepA with one Mn2+ ion, E is PepA with two Mn2+ ions, S is Leu- […]
For fitting, k1 and k-1 ratios were constrained (linked) based KD for Mn2+ binding as measured by ITC (12nM). Initially, k2 and k-2 were allowed to vary without constraints, and values best fitted as well as Fitspace lower and upper boundaries are reported in Table 2. The value for k1 was best fitted as diffusion limited, and therefore was fixed in further fitting cycles. The best fitted value for k-2 was high and unconstrained, and therefore also fixed at 1000 s-1 for further fitting cycles. k3, k-3, k4, and k5 were not constrained. Multiple iterations of fitting were performed, and best fit values recorded. k1, k2, k3, k-3, k4, and k5 were evaluated using FitSpace Explorer to generate confidence intervals for each of these rate constants. […]

PaPepA [4] = molecular target: T1, PaPepA; assay: Room-temperature EPR spectroscopy Mn2+ titration; details: 20 μM PaPepA, 1:0.9 enzyme:Mn^2+ binding model, to be taken as upper limit
Protocol: EPR spectra were obtained with a Bruker EMX 10/12 spectrometer running Xenon software and equipped with an ELEXSYS Super Hi-Q resonator at an operating frequency of ∼9.5 GHz with a 100 kHz modulation. EPR spectra for Mn titrations were recorded at room temperature using a 160 mT field sweep centered at 350 mT, a time constant of 40.96 ms, a conversion time of 133.53 ms, and a 480-point resolution. An attenuation of 10 dB (20.7 mW power) and a modulation amplitude of 1 mT were used. Spectra were phase- and background-corrected, and the double integral was obtained using the Xenon software.
For acquiring EPR spectra, 20 μM PaPepA was used in 100 mM HEPES pH 7.5, 50 mM KCl with increasing concentration of MnCl2: 0–30 μM in steps of 2, 35, and 40 μM (18 steps). For the calibration curve, the same buffer and steps were employed in the absence of enzyme.

[5] = H2O (0% PEG-8000), MnCl2 varied
[6] = multiple turnover, 50 μM Leu-AMC, […] PaPepA

[Mn+2] [Mn^2+]
KACT (PaPepA [1]; 5 % PEG 8000, MnCl2 varied): 0.19 ± 0.03 | kcat/KACT (PaPepA [1]; 5 % PEG 8000, MnCl2 varied): 2.2 ± 0.4 | kcat (PaPepA [1]; 5 % PEG 8000, labelled component varied, other saturating, in 1/s): 0.43 ± 0.02 | KACT (PaPepA [2]; [5]): 0.19 ± 0.01 | kcat/KACT (PaPepA [2]; [5]): 2.2 ± 0.2 | kcat (PaPepA [2]; H2O (0% PEG-8000), labelled component varied, other saturating, in 1/s): 0.409 ± 0.009 | Slope (sucrose) on kcat/KACT (PaPepA [2]; sucrose as viscogen, Mn2+ variation): -0.10 ± 0.06 | Slope (sucrose) on kcat (PaPepA [2]; sucrose as viscogen, labelled component varied): 0.14 ± 0.05 | k1, best-fitted value (PaPepA [3]; F + Mn = E1, global fit of MTO and STO data): 1000 ± 53 μM^–1 s^–1 | molar excess of metal over PaPepA at half maximal rate (PaPepA [3]; [6]): 24 fold | molar excess of metal over PaPepA at plateau (PaPepA [3]; [6]): 300 fold | Kd (PaPepA [4]): 174 nM and ~174 nM
